# Source: patent US11141421B2, “Antitumor agent for biliary tract cancer and method for treating biliary tract cancer” (FUJIFILM Corporation, priority 2018, dated 2021)
# Tests used:
# tumor = conditions: orally administered to mice; cited from earlier work
# bile duct cancer = experiment: Administration of Compound A via intravenous injection to bile duct cancer patients; therapeutic effects judged by MRI image diagnosis; assay type: in vivo, human; parameters: key to Therapeutic effects of the present invention: CR (Complete Response): A state in which the tumor completely disappeared.; PR (Partial Response): A state in which a sum of the sizes of the tumors was reduced by 30% or more.; SD (Stable Disease): A state in which the size of the tumor did not change.; PD (Progressive Disease): A state in which a sum of the sizes of the tumors was increased by 20% or more and also, the size was increased by 5 mm or more even at an absolute value, or a new lesion appeared
# Description: This liquid pharmaceutical preparation was used in the subsequent therapy. Besides, the therapy was carried out at the University of Texas MD Anderson Cancer Center (hereinafter referred to as MDACC), and at Sarah Cannon Research Institute (hereinafter referred to as SCRI) in Denver, State of Colorado, U.S.A.
# (§1) A medication cycle consisting of administration of Compound A via intravenous injection once a week from the 1st week to the 3rd week and cessation of medication in the 4th week was repeated to bile duct cancer patients Specifically, 28 days was set at one cycle, and on the 1st day, 8th day and 15th day, Compound A was administered to the patients. This cycle consisting of 28 days was repeated. A single dose of compound A was set from 40 mg/m^2 to 135 mg/m^2.
# The therapeutic effects were judged according to the following criteria.
# Evaluation targets were confirmed by performing image diagnosis using MRI (magnetic resonance imaging), and were then judged according to the following criteria:
# CR (Complete Response): A state in which the tumor completely disappeared.
# PR (Partial Response): A state in which a sum of the sizes of the tumors was reduced by 30% or more.
# PD (Progressive Disease): A state in which a sum of the sizes of the tumors was increased by 20% or more and also, the size was increased by 5 mm or more even at an absolute value, or a new lesion appeared.
# [1] = Side effects / drug associated AE in the clinical trial of Compound A; assay type: in vivo, human
# Description: as §1
# Bile duct cancer patient 6 is intrahepatic cholangiocarcinoma. […] Further, due to neutropenia, the dose was changed to 67.5 mg/m^2. Thereafter, SD could be maintained for 34 weeks or more.
structure (smiles),measurement,setting,value
"Nc1ccn([C@@H]2S[C@H](CO)[C@@H](O)[C@@H]2F)c(=O)n1 [Compound A, 1-(2-deoxy-2-fluoro-4-thio-β-D-arabinofuranosyl)cytosine]",antitumor activity,tumor,strong antitumor activity
same,Therapeutic effects of the present invention,"bile duct cancer; bile duct cancer patient 1 (intrahepatic bile duct cancer), single dose 40 mg/m^2 iv, days 1, 8, 15 of 28-day cycle",PR (PR (Partial Response): A state in which a sum of the sizes of the tumors was reduced by 30% or more.)
same,Therapeutic effect after dose increase,"bile duct cancer; bile duct cancer patient 1, single dose increased to 60 mg/m^2 or 90 mg/m^2",PR (PR (Partial Response): A state in which a sum of the sizes of the tumors was reduced by 30% or more.)
same,Therapeutic effects of the present invention,"bile duct cancer; bile duct cancer patient 2 (intrahepatic bile duct cancer), single dose 60 mg/m^2 iv",PR (PR (Partial Response): A state in which a sum of the sizes of the tumors was reduced by 30% or more.)
same,Therapeutic effects of the present invention,"bile duct cancer; bile duct cancer patient 3 (bile duct cholangiocarcinoma), initial dose 60 mg/m^2, changed to 90 mg/m^2",SD
same,time for which SD could be maintained,"bile duct cancer; bile duct cancer patient 3, initial dose 60 mg/m^2, changed to 90 mg/m^2",≥ 32 weeks
same,Therapeutic effects of the present invention,"bile duct cancer; bile duct cancer patient 4, single dose 90 mg/m^2 iv","PD (PD (Progressive Disease): A state in which a sum of the sizes of the tumors was increased by 20% or more and also, the size was increased by 5 mm or more even at an absolute value, or a new lesion appeared.)"
same,Therapeutic effects of the present invention,"bile duct cancer; bile duct cancer patient 5, single dose 90 mg/m^2 iv",SD
same,Therapeutic effects of the present invention,"bile duct cancer; bile duct cancer patient 6 (intrahepatic cholangiocarcinoma), single dose 90 mg/m^2 in Table 1 (text: 135, then 90, then 67.5 mg/m^2)",SD
same,time for which SD could be maintained,"bile duct cancer; bile duct cancer patient 6, after dose changes 135 to 90 to 67.5 mg/m^2",≥ 34 weeks
same,side effect leading to further dose change,"[1]; bile duct cancer patient 6, dose 90 mg/m^2 (then changed to 67.5 mg/m^2)",neutropenia
same,side effects observed,"[1]; bile duct cancer patient 6, initial dose 135 mg/m^2",hypotension and suspected bacteremia
same,most common drug associated AE among two or more patients,"[1]; clinical trial, patients including bile duct cancer patients, 40 to 135 mg/m^2 iv","fever, nausea, chills, itch, irritating, dry skin, skin separation, and fatigue"
